Results from patent US8906943B2, “Synthetic compounds and methods to decrease nicotine self-administration” (priority 2010, dated 2014).
Read-outs that look alike come from different tables or passages of the source. Marks after values point to notes of the source that are not given here.

What was measured:
[1] = biological target: human CYP2A6 (Homo sapiens (Human), UniProt P11509); assay: Inhibition of human CYP2A6-mediated coumarin 7-hydroxylation; format: biochemical; details: for Ki: read-out: Ki human CYP 2A6
Protocol: Our first studies were with highly purified human CYP2A6 that provided a convenient and relatively high-throughput measure of CYP2A6 inhibition. Full dose-response IC50 values (nine concentrations) were determined (Table 1).

[2] = biological target: CYP2B1 (Rattus norvegicus (Rat), UniProt P00176); assay: Inhibition of rat CYP2B1; format: biochemical; details: pH 7.5, Inhibitor present at 100 μM, read-out: rCYP2B1 % inhibition
[3] = test system: nicotine self-administration in male Wistar rats; assay: Nicotine i.v. self-administration (IVSA) in rats, FR1 schedule; format: in vivo, rat; details: for Number of nicotine infusions, Compound (15 mg/kg): 15 mg/kg i.p. 30 minutes before i.v. self-administration of 0.03 mg/kg/infusion nicotine; for % Change (decrease in nicotine self-administration): versus vehicle; for Number of nicotine infusions, Compound (25 mg/kg): 25 mg/kg i.p. 30 minutes before i.v. self-administration of 0.03 mg/kg/infusion nicotine; for effect on nicotine intake, ANOVA of dose response: 1-hour self-administration sessions; for ED50: Rattus norvegicus, iv, rats, read-out: apparent ED50, nicotine IVSA
Protocol: Male, Wistar rats trained in a paradigm of nicotine i.v. self-administration (IVSA) generally related to a modification of a previously published protocol (Watkins et al., Pharmacol Biochem Behavior 62, 743-751 (1999)). Rats were treated with test compounds I-7. […] At 3.0 mg/kg, responding for nicotine was decreased by 62% when compared to control (vehicle-treated) conditions. […] On the basis of these initial studies, more extensive work was done and IVSA studies of compounds 8, 10 and 11 were conducted.
As with all the compounds examined in this study, there was no carry-over effect. […] The dose-effect function for treatment of 11 on nicotine self-administration is shown in [FIG. 2].

[4] = biological target: hCYP2B6 (Homo sapiens (Human), UniProt P20813); assay: CYP2B6 inhibition, vivid blue substrate O-dealkylation; format: biochemical; details: for IC50: ND = no detectable inhibition
Protocol: (§1) To gain insight into the selectivity of the synthetic compounds for inhibition of other CYPs, we examined the major CYPs present in human liver. […] A typical incubation mixture (final volume 0.25 mL) contained 50 mM Tris or KPhos buffer (pH 7.5), 0.5 mM NADP^+, 2.0 mM G6P, 1 U of G6P dehydrogenase and 0.6 mg DETAPAC and the inhibitor was added last to minimize interaction with the protein. After mixing on ice, the reaction was initiated by the addition of substrate and incubated at 37° C. with shaking in air. Organic extracts were analyzed by fluorescence (for fluorometric substrates) or injected onto a Hitachi L-7100 system equipped with a Hitachi L-7400 UV detector. Separations were done with an Altex Ultrasphere ODS (4.6 mm×250 mm, 5 μm) column and analytes were eluted with an isocratic solvent system consisting of water/acetonitrile/methanol (30:10:60, v/v/v) at a flow rate of 1.0 mL/min. Quantification of substrate and metabolite was determined from peak areas of the chromatogram and comparison with standard curves. IC50 values were determined with GraphPad Prism and kinetic data was converted into IC50 values. Each kinetic determination was reported as the mean±SD as described below. […] To measure CYP2A6 activity, coumarin 7-hydroxylation was determined as described in Denton et al., supra. To measure CYP3A4 activity, testosterone 6-hydroxylation was determined as described in Denton et al., supra. To measure CYP2E1, CYP2B6, CYP2C9, CYP2C19 and CYP2D6 activity, isozyme specific vivid blue substrate O-dealkylation was determined via a modified PanVera Vivid Assay Protocol as described in Denton et al., supra.

[5] = biological target: CYP2D6 (Homo sapiens (Human), UniProt P10635); assay: CYP2D6 inhibition, vivid blue substrate O-dealkylation; format: biochemical; details: pH 7.5, probe isozyme specific vivid blue substrate (O-dealkylation), mean of triplicate, read-out: CYP2D6 Percent Inhibition
Protocol: as §1

[6] = biological target: CYP2C19 (Homo sapiens (Human), UniProt P33261); assay: CYP2C19 inhibition, vivid blue substrate O-dealkylation; format: biochemical; details: pH 7.5, probe isozyme specific vivid blue substrate (O-dealkylation), mean of triplicate, read-out: CYP2C19 Percent Inhibition
Protocol: as §1

[7] = biological target: CYP2C9 (Homo sapiens (Human), UniProt P11712); assay: CYP2C9 inhibition, vivid blue substrate O-dealkylation; format: biochemical; details: pH 7.5, probe isozyme specific vivid blue substrate (O-dealkylation), mean of triplicate, read-out: CYP2C9 Percent Inhibition
Protocol: as §1

[8] = biological target: CYP2E1 (Homo sapiens (Human), UniProt P05181); assay: CYP2E1 inhibition, vivid blue substrate O-dealkylation; format: biochemical; details: for inhibition of human CYP 2E1 (in words): 10 μM; for inhibition at 10 µM: human, pH 7.5, probe isozyme specific vivid blue substrate (O-dealkylation), mean of triplicate, read-out: CYP2E1 Percent Inhibition
Protocol: as §1

[9] = biological target: CYP3A4 (Homo sapiens (Human), UniProt P08684); assay: in vitro; details: pH 7.5
Protocol: as §1, with “Separations were done with an Altex Ultrasphere ODS (4.6 mm×250 mm, 5 μm) column and analytes were eluted with an isocratic solvent system consisting of water/acetonitrile/methanol (30:10:60, v/v/v) at a flow rate of 1.0 mL/min.” left out, “values.” for “values. Each kinetic determination was reported as the mean±SD as described below.”

[10] = test system: food intake in rats; assay: Order and food effects, operant food sessions; format: in vivo, rat; details: for Food Effects: mean ± SEM
Description: The conclusion is that the effect of 10 and 11 was selective and highly efficacious on a biological target and not a promiscuous non-specific behavioral effect.

[11] = Table 3, read-out: CYP2A6 Inhibition IC50
[12] = Table 1, purified human CYP2A6, nine concentrations, read-out: hCYP2A6 IC50

human CYP2A6, sequence (P11509 whole entry): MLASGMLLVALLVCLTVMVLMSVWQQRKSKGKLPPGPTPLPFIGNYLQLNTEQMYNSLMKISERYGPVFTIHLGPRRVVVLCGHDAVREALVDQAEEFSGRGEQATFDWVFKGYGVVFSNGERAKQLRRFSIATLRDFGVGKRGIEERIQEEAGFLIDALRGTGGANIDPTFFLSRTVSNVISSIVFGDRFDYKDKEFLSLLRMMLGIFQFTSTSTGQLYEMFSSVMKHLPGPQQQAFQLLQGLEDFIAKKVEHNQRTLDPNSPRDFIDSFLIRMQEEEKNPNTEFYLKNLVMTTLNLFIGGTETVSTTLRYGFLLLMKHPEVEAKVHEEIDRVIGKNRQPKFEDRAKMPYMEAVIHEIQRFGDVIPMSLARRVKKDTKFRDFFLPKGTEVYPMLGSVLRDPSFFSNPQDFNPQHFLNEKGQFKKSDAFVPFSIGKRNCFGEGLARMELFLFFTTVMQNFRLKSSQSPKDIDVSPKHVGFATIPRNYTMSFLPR
CYP2C9, sequence (P11712 whole entry): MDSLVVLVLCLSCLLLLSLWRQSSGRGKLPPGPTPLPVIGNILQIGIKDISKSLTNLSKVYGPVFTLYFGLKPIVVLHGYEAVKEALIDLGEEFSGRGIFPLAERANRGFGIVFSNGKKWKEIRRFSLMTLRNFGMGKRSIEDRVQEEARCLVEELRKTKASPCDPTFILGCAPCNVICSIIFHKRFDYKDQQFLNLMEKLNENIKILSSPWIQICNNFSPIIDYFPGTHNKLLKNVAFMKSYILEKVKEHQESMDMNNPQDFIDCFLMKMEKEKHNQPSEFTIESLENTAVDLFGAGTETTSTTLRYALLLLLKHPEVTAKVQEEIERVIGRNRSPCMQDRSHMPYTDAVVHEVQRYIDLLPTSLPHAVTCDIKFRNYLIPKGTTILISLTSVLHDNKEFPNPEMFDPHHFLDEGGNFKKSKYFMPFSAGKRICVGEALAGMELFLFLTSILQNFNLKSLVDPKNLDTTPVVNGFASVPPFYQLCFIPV
hCYP2B6, sequence (P20813 whole entry): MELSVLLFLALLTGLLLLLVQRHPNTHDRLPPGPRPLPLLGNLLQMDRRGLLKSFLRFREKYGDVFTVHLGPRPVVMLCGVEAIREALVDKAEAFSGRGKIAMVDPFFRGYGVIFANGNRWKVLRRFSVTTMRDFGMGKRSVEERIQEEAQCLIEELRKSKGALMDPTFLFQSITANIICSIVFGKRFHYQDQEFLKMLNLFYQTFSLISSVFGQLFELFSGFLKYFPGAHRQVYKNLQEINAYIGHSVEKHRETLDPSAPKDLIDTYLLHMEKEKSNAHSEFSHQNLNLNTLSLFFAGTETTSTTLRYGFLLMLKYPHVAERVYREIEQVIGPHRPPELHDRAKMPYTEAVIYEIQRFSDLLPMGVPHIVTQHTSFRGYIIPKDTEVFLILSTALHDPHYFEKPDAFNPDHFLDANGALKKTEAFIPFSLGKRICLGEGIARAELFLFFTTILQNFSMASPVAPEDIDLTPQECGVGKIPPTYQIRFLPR
CYP2B1, sequence (P00176 whole entry, the tested form may be a part): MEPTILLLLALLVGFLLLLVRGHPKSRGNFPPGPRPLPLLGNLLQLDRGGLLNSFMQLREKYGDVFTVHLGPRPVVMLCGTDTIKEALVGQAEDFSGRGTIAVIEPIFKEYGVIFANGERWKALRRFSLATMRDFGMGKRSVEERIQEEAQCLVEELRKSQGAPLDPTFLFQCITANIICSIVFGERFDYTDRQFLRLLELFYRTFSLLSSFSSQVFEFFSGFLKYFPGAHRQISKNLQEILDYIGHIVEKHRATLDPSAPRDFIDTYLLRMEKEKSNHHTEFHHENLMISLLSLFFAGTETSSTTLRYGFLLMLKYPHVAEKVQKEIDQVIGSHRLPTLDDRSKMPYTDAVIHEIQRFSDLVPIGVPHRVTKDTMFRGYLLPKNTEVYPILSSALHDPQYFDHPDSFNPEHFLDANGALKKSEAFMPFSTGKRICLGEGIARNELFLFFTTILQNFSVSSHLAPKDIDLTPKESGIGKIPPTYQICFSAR
CYP2E1, sequence (P05181 whole entry): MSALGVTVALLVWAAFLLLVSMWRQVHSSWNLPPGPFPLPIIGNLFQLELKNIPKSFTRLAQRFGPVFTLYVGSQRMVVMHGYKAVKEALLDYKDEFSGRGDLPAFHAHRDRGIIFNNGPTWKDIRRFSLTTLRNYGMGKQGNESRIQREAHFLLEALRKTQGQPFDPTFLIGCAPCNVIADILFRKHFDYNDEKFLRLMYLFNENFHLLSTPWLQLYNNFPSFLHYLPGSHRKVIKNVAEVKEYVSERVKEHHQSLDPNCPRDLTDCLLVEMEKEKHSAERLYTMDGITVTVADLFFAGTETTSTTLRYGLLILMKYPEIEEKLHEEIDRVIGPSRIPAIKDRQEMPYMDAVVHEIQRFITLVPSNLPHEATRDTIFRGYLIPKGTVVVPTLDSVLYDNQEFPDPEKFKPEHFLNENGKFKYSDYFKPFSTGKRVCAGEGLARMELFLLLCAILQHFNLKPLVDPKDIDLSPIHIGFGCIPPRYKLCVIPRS
CYP2C19, sequence (P33261 whole entry): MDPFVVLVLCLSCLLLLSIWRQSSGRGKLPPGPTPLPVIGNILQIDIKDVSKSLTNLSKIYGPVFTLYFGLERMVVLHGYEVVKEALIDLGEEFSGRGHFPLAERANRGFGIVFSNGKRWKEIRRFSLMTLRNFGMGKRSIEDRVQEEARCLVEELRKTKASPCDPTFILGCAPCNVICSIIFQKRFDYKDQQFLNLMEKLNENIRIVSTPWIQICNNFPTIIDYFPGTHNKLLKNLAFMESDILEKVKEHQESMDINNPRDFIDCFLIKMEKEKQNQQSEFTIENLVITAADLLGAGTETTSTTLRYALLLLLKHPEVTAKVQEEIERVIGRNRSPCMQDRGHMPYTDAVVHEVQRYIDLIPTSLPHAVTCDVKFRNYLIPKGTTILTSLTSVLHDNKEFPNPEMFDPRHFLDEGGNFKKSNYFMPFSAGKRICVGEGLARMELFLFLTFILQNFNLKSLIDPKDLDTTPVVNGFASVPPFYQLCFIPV
CYP2D6, sequence (P10635 whole entry): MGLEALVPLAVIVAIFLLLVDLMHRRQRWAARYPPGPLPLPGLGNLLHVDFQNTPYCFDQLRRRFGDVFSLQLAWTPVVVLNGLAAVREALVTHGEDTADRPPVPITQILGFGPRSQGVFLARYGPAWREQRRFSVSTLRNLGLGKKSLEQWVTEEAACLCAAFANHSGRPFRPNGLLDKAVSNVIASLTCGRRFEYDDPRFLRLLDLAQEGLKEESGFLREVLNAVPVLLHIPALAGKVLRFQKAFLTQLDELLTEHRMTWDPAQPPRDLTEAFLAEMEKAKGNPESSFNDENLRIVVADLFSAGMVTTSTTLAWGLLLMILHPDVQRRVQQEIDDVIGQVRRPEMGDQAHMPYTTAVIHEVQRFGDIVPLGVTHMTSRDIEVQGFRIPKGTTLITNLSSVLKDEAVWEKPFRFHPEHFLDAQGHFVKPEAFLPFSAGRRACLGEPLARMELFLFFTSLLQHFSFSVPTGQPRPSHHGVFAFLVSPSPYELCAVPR
CYP3A4, sequence (P08684 whole entry): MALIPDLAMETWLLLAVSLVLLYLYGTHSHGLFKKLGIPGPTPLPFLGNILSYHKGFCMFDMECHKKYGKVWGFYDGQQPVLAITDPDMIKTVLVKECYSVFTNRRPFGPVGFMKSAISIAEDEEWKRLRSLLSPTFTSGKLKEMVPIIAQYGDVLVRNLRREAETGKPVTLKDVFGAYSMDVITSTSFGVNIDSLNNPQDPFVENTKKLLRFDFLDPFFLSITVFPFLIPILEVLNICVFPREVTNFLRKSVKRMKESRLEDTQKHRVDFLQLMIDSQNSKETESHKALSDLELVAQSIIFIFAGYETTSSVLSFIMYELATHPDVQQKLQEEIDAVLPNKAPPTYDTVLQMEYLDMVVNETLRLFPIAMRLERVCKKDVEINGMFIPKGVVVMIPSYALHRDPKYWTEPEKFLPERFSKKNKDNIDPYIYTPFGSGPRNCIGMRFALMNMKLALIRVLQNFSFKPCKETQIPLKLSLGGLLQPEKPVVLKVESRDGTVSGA

How did the IC50 [1, 11] turn out when `N[C@@H]1C[C@H]1c1ccccc1` (racemic) [Tranylcypromine, reference compound] was run?
The IC50 was 233 nM.

What does the source list for `NCc1cc(-c2cccnc2)n[nH]1` [Compound 1]?
inhibition at 100 µM [2]: 53.8%; Number of nicotine infusions, Compound (15 mg/kg) ([3]; FR1): 11.6 ± 2.9; % Change (decrease in nicotine self-administration) ([3]; 15 mg/kg i.p.): 14.7%; IC50 [4]: 66400 nM; IC50 [1, 12]: 600 nM

What does the source list for `NCc1cc(-c2cccnc2)no1` [Compound 2]?
inhibition at 100 µM [2]: 55.3%; Number of nicotine infusions, Compound (15 mg/kg) ([3]; FR1): 8.4 ± 1.7; % Change (decrease in nicotine self-administration) ([3]; 15 mg/kg i.p.): 19.2%; Number of nicotine infusions, Compound (25 mg/kg) ([3]; FR1): 5.6 ± 1.6^d; % Change (decrease in nicotine self-administration) ([3]; 25 mg/kg i.p.): 60. %; IC50 [4]: 67400 nM; IC50 [1, 12]: 800 nM

Which inhibition at 100 µM [2] does the source give for `Clc1ccc(Cn2ccnc2)cc1` [Compound 3, N-(4-Chlorobenzyl)imidazole] here?
The inhibition at 100 µM was 35.5%.

What about the inhibition at 10 µM [5] of the same molecule?
The inhibition at 10 µM was 48%.

What about the “Number of nicotine infusions, Compound (15 mg/kg)” value (shortened to “Number … (15 mg/kg)”) ([3]; FR1) of the same molecule?
Its value is 13.0 ± 2.7.

What about the “% Change (decrease in nicotine self-administration)” value ([3]; 15 mg/kg i.p.) of the same molecule?
Its value is 23.6%.

And the “inhibition of human CYP 2B6 (in words)” value [4]?
Its value is “inhibited human CYP 2B6 to a certain extent”.

And the IC50 [4]?
Its IC50 is 12000 nM.

And the IC50 [1, 12]?
Its IC50 is 160 nM.

And the Ki [1]?
The Ki was 80 nM.

And the inhibition at 10 µM [6]?
Its inhibition at 10 µM is 43%.

And the inhibition at 10 µM [7]?
Its inhibition at 10 µM is 32%.

And the “inhibition of human CYP 2E1 (in words)” value [8]?
Its value is “some inhibition”.

What about the inhibition at 10 µM [8] of the same molecule?
The inhibition at 10 µM was 87%.

`NCc1ccc(-c2cccnc2)s1` [Compound 4] was tested. Which inhibition at 100 µM [2] did it give?
The inhibition at 100 µM was 42.7%.

And the “Number … (15 mg/kg)” value ([3]; FR1)?
The value was 11.8 ± 3.2.

And the “% Change (decrease in nicotine self-administration)” value ([3]; 15 mg/kg i.p.)?
The value was 23.4%.

With `Cc1ccsc1-c1cccnc1` [Compound 5] as the molecule, how does the inhibition at 100 µM [2] read?
The inhibition at 100 µM was 47.9%.

And the “Number … (15 mg/kg)” value ([3]; FR1)?
Its value is 8.8 ± 1.6.

And the “Number of nicotine infusions, Compound (25 mg/kg)” value ([3]; FR1)?
The value was 1.6 ± 0.7^d.

What does the source list for `NCc1ccc(-c2cccnc2)o1` [Compound 6]?
inhibition at 100 µM [2]: 46.6%; Number of nicotine infusions, Compound (15 mg/kg) ([3]; FR1): 16.8 ± 2.3^d; % Change (decrease in nicotine self-administration) ([3]; 15 mg/kg i.p.): 27.6%; Number of nicotine infusions, Compound (25 mg/kg) ([3]; FR1): 8.3 ± 2.1^d; % Change (decrease in nicotine self-administration) ([3]; 25 mg/kg i.p.): 64.2%; IC50 [1, 12]: 200 nM

What does the source list for `c1cncc(Cn2ccnc2)c1` [Compound 7, N-(3-Pyridylmethyl)imidazole]?
inhibition at 100 µM [2]: 43.3%; Number of nicotine infusions, Compound (15 mg/kg) ([3]; FR1): 7.5 ± 1.9^d; % Change (decrease in nicotine self-administration) ([3]; 15 mg/kg i.p.): 28.6%; IC50 [1, 12]: > 200000 nM; Ki [1]: > 200000 nM

How did the “effect on nicotine intake, ANOVA of dose response” value (“effect on nicotine intake, ANOVA” for short) ([3]; i.p.) turn out when `c1cncc(-c2c[nH]cn2)c1` [Compound 8] was run?
Its value is “failed to reveal a significant effect”.

What about the IC50 [1, 12] of the same molecule?
Its IC50 is 800000 nM.

And the IC50 [1, 11]?
Its IC50 is 800 nM.

Which inhibition at 100 µM [2] does the source give for `c1cc(CCn2ccnc2)ccn1` [Compound 9, N-(4-Pyridylethyl)imidazole] here?
Its inhibition at 100 µM is 53.5%.

And the “nicotine self-administration under a FR schedule (in words)” value ([3]; 15 mg/kg, i.p., 30-min prior)?
The value was “decreased nicotine self-administration”.

With `c1cn(CC2CCCCC2)cn1` [Compound 10, N-(Cyclohexylmethyl)imidazole] as the molecule, how does the inhibition at 10 µM [9] read?
The inhibition at 10 µM was 27%.

What about the “Food Effects” value ([10]; Dose 0.5 mg/kg) of the same molecule?
Its value is 80 ± 1.8.

What about the “Food Effects” value ([10]; Dose 1.58 mg/kg) of the same molecule?
The value was 79 ± 2.5.

What about the “Food Effects” value ([10]; Dose 5.0 mg/kg) of the same molecule?
Its value is 77 ± 3.2.

What about the inhibition at 100 µM [2] of the same molecule?
Its inhibition at 100 µM is 56.9%.

And the inhibition at 10 µM [5]?
The inhibition at 10 µM was 34%.

What about the ED50 [3] of the same molecule?
Its ED50 is 4 mg/kg.

And the “effect on nicotine intake, ANOVA” value ([3]; i.p.)?
Its value is “significant effect”.

What about the “inhibition of human CYP 2B6 (in words)” value [4] of the same molecule?
The value was “inhibited human CYP 2B6 to a certain extent”.

And the IC50 [4]?
The IC50 was 11000 nM.

And the IC50 [1, 12]?
Its IC50 is 170000 nM.

What about the inhibition at 10 µM [6] of the same molecule?
The inhibition at 10 µM was 24%.

What about the inhibition at 10 µM [7] of the same molecule?
The inhibition at 10 µM was 44%.

And the “inhibition of human CYP 2E1 (in words)” value [8]?
Its value is “some inhibition”.

And the inhibition at 10 µM [8]?
The inhibition at 10 µM was 89%.

Which inhibition at 10 µM [9] does the source give for `c1ccc(CCn2ccnc2)cc1` [Compound 11, 1-Phenethyl-2-imidazol-1-yl] here?
The inhibition at 10 µM was 63%.

What about the “effect on food intake (in words)” value ([10]; 5 mg/kg, 30-min operant food sessions) of the same molecule?
The value was “significant suppression”.

What about the “Food Effects” value ([10]; Dose 2.8 mg/kg) of the same molecule?
The value was 79 ± 1.3.

What about the “Food Effects” value ([10]; Dose 5.0 mg/kg) of the same molecule?
Its value is 63 ± 5.6.

And the inhibition at 100 µM [2]?
The inhibition at 100 µM was 67.7%.

And the inhibition at 10 µM [5]?
Its inhibition at 10 µM is 62%.

What about the ED50 [3] of the same molecule?
Its ED50 is 3 mg/kg.

And the “effect on nicotine intake, ANOVA” value ([3]; i.p.)?
Its value is “significant effect”.

What about the “inhibition of human CYP 2B6 (in words)” value [4] of the same molecule?
The value was “inhibited human CYP 2B6 to a certain extent”.

And the IC50 [4]?
The IC50 was greater than 20000 nM.

What about the IC50 [1, 12] of the same molecule?
Its IC50 is 618000 nM.

And the IC50 [1, 11]?
Its IC50 is 618 nM.

And the inhibition at 10 µM [6]?
Its inhibition at 10 µM is 21%.

And the inhibition at 10 µM [7]?
The inhibition at 10 µM was 13%.

What about the “inhibition of human CYP 2E1 (in words)” value [8] of the same molecule?
The value was “some inhibition”.

And the inhibition at 10 µM [8]?
The inhibition at 10 µM was 88%.

`CNC1(C)C2CCC(C2)C1(C)C` (centres unmarked) [Mecamylamine, reference compound] was tested. Which “decrease in responding for nicotine versus vehicle” value ([3]; 3.0 mg/kg, s.c., 30 minutes before the session, FR1) did it give?
The value was 62%.
